Assay results published in patent US20060004088A1, “Furan derivatives for preventing and curing osteoporosis and pharmaceutical compositions containing the same” (OCT INC., priority 2002, published 2006).

System: osteoclast pregenitor cells
Assay: Inhibition rates of furan derivatives versus osteoclast formation (TRAP staining)
Assay type: cell-based, mice
Settings: TRAP-positive multinucleated cells, untreated control set as 100%
Description: First, bone marrow cells were isolated, as follow. After sacrificing 7-9 week female mice by cervical dislocation, femur and tibia were excised aseptically while removing attached soft tissues. After cutting both ends of long bones, 1 ml of an enzyme solution, containing 0.1% collagenase (Gibco), 0.05% trypsin and 0.5 mM EDTA (Gibco), was injected to the bone marrow cavity at one end using a syringe with a 26-guage needle, and bone marrow was then collected. After shaking the recovered bone marrow for 30 min, bone marrow cells were collected, and cultured in α-minimum essential medium (α-MEM) supplemented with 10% FBS for 24 hrs. Then, non-adherent cells were collected, which are osteoclast pregenitors, aliquotted onto culture plates at a density of 2×10^5 cells per well, and cultured for 8 days in α-MEM supplemented with 20 ng/ml of macrophage-colony stimulating factor (M-CSF, Peprotech, USA) and 30 ng/ml RANKL (Peprotech, USA). During the 8 days of culturing, the cells were treated with the Compound 1. Thereafter, osteoclast formation was investigated by fixing the cultured cells and then carrying out TRAP staining, as described in the following Experimental Example 2.2. In addition, resorption activity of osteoclasts was investigated by measuring the absorption area after removing osteoclasts in cultures in calcium phosphate-coated plates, as described in Experimental Example 2.3, below.
After cell culture, the adherent cells were washed with PBS, and TRAP staining was performed, as follows. After being fixed with citrate-acetate-formaldehyde for 5 min, the cells were incubated for 1 hr in acetate buffer (prewarmed at 37° C., pH 5.0) containing naphthol AS-BI phosphate, fast Garnet GBC and 7 mM tartrate buffer (pH 5.0). TRAP-positive multinucleated cells having 3 or more nuclei were considered as osteoclasts.
Osteoclast pregenitor cells were isolated, and their differentiation to mature osteoclasts was induced, according to the same method as in the Experimental Example 2-1, while treated with each of the furan derivatives of the present invention. According to the same method as in the Experimental Example 2-2, TRAP staining performed, and TRAP-positive multinucleated cells were counted. An inhibition rate of each furan derivative against osteoclast formation was expressed as percentage, wherein the number of stained cells in a control not treated the furan derivative was arbitrarily set as 100% (Tables 14 to 16).

Compound: CCCc1ccc(OCc2ccc(C(=O)Nc3cc(Cl)ccc3Cl)o2)cc1 [Compound 170]
- Inhibition rate against osteoclast formation, % (0.1 μM): 0%
- Inhibition rate against osteoclast formation, % (1 μM): 0%
- Inhibition rate against osteoclast formation, % (10 μM): 16.31%

Compound: COc1ccc(C)cc1NC(=O)c1ccc(COc2cccc(Cl)c2)o1 [Compound 171]
- Inhibition rate against osteoclast formation, % (0.1 μM): 0%
- Inhibition rate against osteoclast formation, % (1 μM): 0%
- Inhibition rate against osteoclast formation, % (10 μM): 0.42%

Compound: Cc1cc(OCc2ccc(C(=O)Nc3cccc(C)c3C)o2)ccc1Cl [Compound 172]
- Inhibition rate against osteoclast formation, % (0.1 μM): 0%
- Inhibition rate against osteoclast formation, % (1 μM): 0%
- Inhibition rate against osteoclast formation, % (10 μM): 11.08%

Compound: Cc1cc(OCc2ccc(C(=O)Nc3ccc(Cl)cc3)o2)ccc1Cl [Compound 173]
- Inhibition rate against osteoclast formation, % (0.1 μM): 0%
- Inhibition rate against osteoclast formation, % (1 μM): 0%
- Inhibition rate against osteoclast formation, % (10 μM): 8.03%

Compound: COc1ccccc1OCc1ccc(C(=O)Nc2ccccc2Cl)o1 [Compound 174]
- Inhibition rate against osteoclast formation, % (0.1 μM): 0%
- Inhibition rate against osteoclast formation, % (1 μM): 0%
- Inhibition rate against osteoclast formation, % (10 μM): 14.11%

Compound: COc1ccccc1OCc1ccc(C(=O)Nc2ccc(C)c(C)c2)o1 [Compound 175]
- Inhibition rate against osteoclast formation, % (0.1 μM): 0%
- Inhibition rate against osteoclast formation, % (1 μM): 0%
- Inhibition rate against osteoclast formation, % (10 μM): 33.33%

Compound: CCCc1ccc(OCc2ccc(C(=O)Nc3ccc(F)cc3F)o2)c(OC)c1 [Compound 176]
- Inhibition rate against osteoclast formation, % (0.1 μM): 0%
- Inhibition rate against osteoclast formation, % (1 μM): 0%
- Inhibition rate against osteoclast formation, % (10 μM): 15.56%

Compound: Cc1cc(C)cc(OCc2ccc(C(=O)Nc3ccccc3F)o2)c1 [Compound 177]
- Inhibition rate against osteoclast formation, % (0.1 μM): 0%
- Inhibition rate against osteoclast formation, % (1 μM): 0%
- Inhibition rate against osteoclast formation, % (10 μM): 11.03%

Compound: O=C(Nc1ccccc1F)c1ccc(COc2ccc(Cl)cc2)o1 [Compound 178]
- Inhibition rate against osteoclast formation, % (0.1 μM): 0%
- Inhibition rate against osteoclast formation, % (1 μM): 0%
- Inhibition rate against osteoclast formation, % (10 μM): 14.09%

Compound: Cc1cccc(C)c1NC(=O)c1ccc(COc2ccc(Cl)cc2)o1 [Compound 179]
- Inhibition rate against osteoclast formation, % (0.1 μM): 0%
- Inhibition rate against osteoclast formation, % (1 μM): 0%
- Inhibition rate against osteoclast formation, % (10 μM): 34.81%

Compound: COC(=O)c1ccccc1NC(=O)c1ccc(COc2ccc(C)c(C)c2)o1 [Compound 180]
- Inhibition rate against osteoclast formation, % (0.1 μM): 0%
- Inhibition rate against osteoclast formation, % (1 μM): 0%
- Inhibition rate against osteoclast formation, % (10 μM): 8.15%

Compound: O=C(Nc1cc(C(F)(F)F)ccc1Cl)c1ccc(COc2ccc(Cl)cc2)o1 [Compound 181]
- Inhibition rate against osteoclast formation, % (0.1 μM): 0%
- Inhibition rate against osteoclast formation, % (1 μM): 0%
- Inhibition rate against osteoclast formation, % (10 μM): 56.96%

Compound: COc1cc([N+](=O)[O-])ccc1NC(=O)c1ccc(COc2ccc(Cl)cc2)o1 [Compound 182]
- Inhibition rate against osteoclast formation, % (0.1 μM): 0%
- Inhibition rate against osteoclast formation, % (1 μM): 0%
- Inhibition rate against osteoclast formation, % (10 μM): 4.34%

Compound: O=C(Nc1ccccc1[N+](=O)[O-])c1ccc(COc2ccccc2Cl)o1 [Compound 183]
- Inhibition rate against osteoclast formation, % (0.1 μM): 0%
- Inhibition rate against osteoclast formation, % (1 μM): 0%
- Inhibition rate against osteoclast formation, % (10 μM): 57.39%

Compound: O=C(Nc1ccc(F)cc1F)c1ccc(COc2c(F)c(F)cc(F)c2F)o1 [Compound 185]
- Inhibition rate against osteoclast formation, % (0.1 μM): 0%
- Inhibition rate against osteoclast formation, % (1 μM): 0%
- Inhibition rate against osteoclast formation, % (10 μM): 13.64%

Compound: Cc1ccc(OCc2ccc(C(=O)Nc3ccc(F)c(F)c3)o2)cc1C [Compound 186]
- Inhibition rate against osteoclast formation, % (0.1 μM): 0%
- Inhibition rate against osteoclast formation, % (1 μM): 0%
- Inhibition rate against osteoclast formation, % (10 μM): 21.09%

Compound: CC(=O)Nc1cccc(NC(=O)c2ccc(COc3c(F)c(F)c(F)c(F)c3F)o2)c1 [Compound 187]
- Inhibition rate against osteoclast formation, % (1 μM): 37.05%
- Inhibition rate against osteoclast formation, % (10 μM): 36.74%

Compound: COc1ccc(NC(=O)c2ccc(COc3ccccc3Br)o2)c(OC)c1 [Compound 188]
- Inhibition rate against osteoclast formation, % (0.1 μM): 0%
- Inhibition rate against osteoclast formation, % (1 μM): 0%
- Inhibition rate against osteoclast formation, % (10 μM): 7.6%

Compound: COc1ccccc1NC(=O)c1ccc(COc2ccc(C(C)(C)C)cc2)o1 [Compound 189]
- Inhibition rate against osteoclast formation, % (0.1 μM): 0%
- Inhibition rate against osteoclast formation, % (1 μM): 0%
- Inhibition rate against osteoclast formation, % (10 μM): 48.99%

Compound: O=C(Nc1ccc(I)cc1)c1ccc(COc2ccccc2Br)o1 [Compound 190]
- Inhibition rate against osteoclast formation, % (0.1 μM): 0%
- Inhibition rate against osteoclast formation, % (1 μM): 0%
- Inhibition rate against osteoclast formation, % (10 μM): 5.12%

Compound: O=C(Nc1cccc([N+](=O)[O-])c1)c1ccc(COc2ccc(I)cc2)o1 [Compound 191]
- Inhibition rate against osteoclast formation, % (0.1 μM): 0%
- Inhibition rate against osteoclast formation, % (1 μM): 0%
- Inhibition rate against osteoclast formation, % (10 μM): 8.06%
